{"source": "patent US20190038723A1", "about": "“Inhibiting UVB-Irradiation Damage By Targeting Nitric Oxide Synthases (cNOS)” (priority 2016, published 2019)", "assay_type_in_all_cases": "cell-based, human", "key": {"IKKα mRNA": {"tested_on": "IKKα mRNA", "test": "Quantitative real-time PCR of IKKα mRNA expression after UVB", "settings": "HaCaT pre-treated with actinomycin D 5 μg/mL, UVB 50 mJ/cm^2", "method": "FIG. 3: Quantitative real-time PCR analysis of mRNA expression of IKKα in HaCaT human keratinocyte. The cells were pre-treated with DMSO or […] (Act.D, 5 μg/mL) and treated with of UVB (50 mJ/cm^2). The mRNA expression was normalized to GAP OH expression and depicted as fold change vs. DMSO control."}, "HaCaT cells [1]": {"tested_on": "HaCaT cells", "test": "Neutral comet assay of UVB-induced DNA damage in HaCaT cells", "settings": "for reduction of UVB-induced DNA breakage in keratinocytes: L-NAME 1 mM, UVB 10 mJ/cm^2", "method": "FIGS. 10A-10B: UVB-induced DNA damage in HaCaT cells. The image (FIG. 10A) was captured by Cytation 3 Imaging Analyzer (BioTek, Winooski, Vt.); and, the DNA density (FIG. 10B) was analyzed by ImageJ (Version 1.46r. NIH) with Comet Assay Plugin (Pathology & Lab Med UNC-CH). *: p-value<0.05 vs. DMSO alone; **: p-value<0.05 vs. NAME. ***: p-value<0.05 vs. UV+DMSO. The data represents an average of DNA damage analysis for more than five cells.\nTo assess the effect of cNOS inhibitor on UVB-induced DNA damage in keratinocutes, HaCaT cells were treated with DMSO (solvent) or L-NAME (1 mM) for 1 hour prior to UVB radiation (10 mJ/cm^2). At […] post-UVB, the cells were collected and DNA damage was determined using a neutral comet assay kit following manufacture's protocol (Trevigen, Gaithersburg, Md.)."}, "HaCaT cells [2]": {"tested_on": "HaCaT cells", "test": "Soft-agar cell transformation assay after UVB", "settings": "UVB every other day for 14 days", "method": "FIG. 11: UVB-induced HaCaT cells transformation. The cell transformation was determined using a Transformation assay kit (Cell Biolabs, Inc.). *: p-value<0.05 vs. control. **: p-value<0.05 vs. UVB alone. The data represents an average of 3 sets of independent experiments.\nTo determine the chemoprevetive function of cNOS inhibitor for UVB-induced skin cell transformation, cells were treated with sham or UVB every other day for 14 days in the presence or absence of L-NAME (1 mM in media) all time. The cells were detached from plate and same amount of cells were seeded in soft-agar in 96-well microtiter plate. At day 10, the cells alone with soft-agar were solubilized in the wells using Cytoselect buffer (Cell Biolabs, Inc., San Diego, Calif.) and the amount of transformed cells was determined by fluorescence intensity using a Spectra Max M2 fluorescent platereader (Molecular Devices)."}}, "note": "Starred links: 1 amine or outer side, 2 acyl side, 3 side chain; linkers in the order of their positions; H or OH if unused. Positions of bridges follow the written chain, without caps; N, C: chain ends. Non-standard residues stand in square brackets, D forms with d. Residues, ends and D or L forms follow the SMILES beside them. Chains are numbered I, II in the order given. Actinocin(9to1) = Cc1c2oc3c(C)ccc(C(=O)[*:1])c3nc-2c(C(=O)[*:2])c(N)c1=O; NMeV = CN[C@H](C(=O)O)C(C)C; Sar = CNCC(=O)O", "data": [{"smiles": "Cc1c2oc3c(C)ccc(C(=O)N[C@@H]4C(=O)N[C@H](C(C)C)C(=O)N5CCC[C@H]5C(=O)N(C)CC(=O)N(C)[C@@H](C(C)C)C(=O)O[C@@H]4C)c3nc-2c(C(=O)N[C@@H]2C(=O)N[C@H](C(C)C)C(=O)N3CCC[C@H]3C(=O)N(C)CC(=O)N(C)[C@@H](C(C)C)C(=O)O[C@@H]2C)c(N)c1=O", "note": "[actinomycin D] (I: T[dV]P[Sar][NMeV] / II: T[dV]P[Sar][NMeV]; ester I:1-I:C, II:1-II:C; linker I:N-II:N via Actinocin(9to1))", "values": [{"measurement": "effect on IKKα mRNA level post-UVB", "setting": "IKKα mRNA", "value": "does not have a statistically significant effect"}]}, {"smiles": "COC(=O)[C@@H](N)CCCNC(=N)N[N+](=O)[O-]", "note": "[L-NAME]", "values": [{"measurement": "percentage of UVB-induced tail DNA content", "setting": "HaCaT cells [1]; L-NAME 1 mM for 1 hour prior to UVB 10 mJ/cm^2, cells collected at 30 mM post-UVB, UVB+DMSO 49.2%", "value": 32.4, "unit": "%"}, {"measurement": "tail DNA content, L-NAME alone", "setting": "HaCaT cells [1]; L-NAME 1 mM without UVB, DMSO alone 20.7%", "value": 25.6, "unit": "%"}, {"measurement": "reduction of UVB-induced DNA breakage in keratinocytes", "setting": "HaCaT cells [1]; Control = DMSO alone", "value": 58.9, "unit": "%"}, {"measurement": "reduction of UVB-induced DNA breakage in keratinocytes", "setting": "HaCaT cells [1]; Control = L-NAME alone", "value": 71.2, "unit": "%"}, {"measurement": "suppression of UVB-induced transformation of keratinocytes", "setting": "HaCaT cells [2]; L-NAME 1 mM in media", "value": "almost totally suppresses"}, {"measurement": "reading of transformed cells (fluorescence intensity)", "setting": "HaCaT cells [2]; L-NAME 1 mM in media all time, soft-agar day 10, UVB alone 3.2", "value": 1.3}]}]}
